From PubChem BioAssay AID330 (DTP/NCI, 2004)
Values joined by “and” are separate entries in the source; they are usually repeats but may differ in a detail not shown here. Equal entries are not always repeated. Toxic doses and inconclusive results are not listed. The calls were made as follows: active = survival T/C of 150% or more; inactive = T/C below 125% in these data.

Test system: P388 leukemia ip, CD2F1 mice, survival T/C
Assay: NCI In Vivo Anticancer Drug Screen. Data for tumor model P388 Leukemia (intraperitoneal) in CD2F1 (CDF1) mice
Conditions: endpoint: median survival time, higher = longer survival
Outline: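 Mice carrying the transplanted tumor received test compound or vehicle. Survival was recorded in each group, and the value is the treated-group measurement divided by that of the vehicle-treated control group.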

Measured: T/C

CSc1nc2c(Br)cnn2c(=O)[nH]1
inactive: dose: 100.0 mg/kg/injection, schedule: Q01DX001 (ip), vehicle: saline with Tween-80 94 % of control | dose: 200.0 mg/kg/injection, schedule: Q01DX001 (ip), vehicle: saline with Tween-80 101 % of control | dose: 400.0 mg/kg/injection, schedule: Q01DX001 (ip), vehicle: saline with Tween-80 100 % of control

O=C(Nc1ccc(Sc2ccc(N=Nc3c(O)c(S(=O)(=O)O)cc4cc(S(=O)(=O)O)ccc34)cc2)cc1)c1ccc(N=Nc2ccc3c(S(=O)(=O)O)cccc3c2O)cc1
inactive: dose: 50.0 mg/kg/injection, schedule: Q01DX005 (ip), vehicle: saline with Tween-80 101 % of control | dose: 100.0 mg/kg/injection, schedule: Q01DX005 (ip), vehicle: saline with Tween-80 102 % of control | dose: 200.0 mg/kg/injection, schedule: Q01DX005 (ip), vehicle: saline with Tween-80 95 % of control

CCOP(=O)(/C=C1/C(=O)OCC1(C)C)OCC
inactive: dose: 100.0 mg/kg/injection, schedule: Q04DX003 (ip), vehicle: saline 100 % of control | dose: 200.0 mg/kg/injection, schedule: Q04DX003 (ip), vehicle: saline 101 % of control | dose: 400.0 mg/kg/injection, schedule: Q04DX003 (ip), vehicle: saline 104 % of control

COc1cc(/C=C2\C(=O)C3CCN2CC3)cc(OC)c1OC
inactive: dose: 50.0 mg/kg/injection, schedule: Q01DX009 (ip), vehicle: Klucel (hydroxypropylcellulose) (HPC) 96 % of control | dose: 100.0 mg/kg/injection, schedule: Q01DX009 (ip), vehicle: Klucel (hydroxypropylcellulose) (HPC) 93 % of control | dose: 200.0 mg/kg/injection, schedule: Q01DX009 (ip), vehicle: Klucel (hydroxypropylcellulose) (HPC) 114 % of control

CCOC(=O)CC(=O)N(CC)CC
inactive: dose: 100.0 mg/kg/injection, schedule: Q01DX009 (ip), vehicle: saline with Tween-80 104 % of control | dose: 200.0 mg/kg/injection, schedule: Q01DX009 (ip), vehicle: saline with Tween-80 100 % of control | dose: 400.0 mg/kg/injection, schedule: Q01DX009 (ip), vehicle: saline with Tween-80 95 % of control

COC(=O)C(=O)C(C#N)c1ccc([N+](=O)[O-])cc1 (stereo unspecified)
inactive: dose: 60.0 mg/kg/injection, schedule: Q01DX005 (ip), vehicle: saline with Tween-80 101 % of control | dose: 120.0 mg/kg/injection, schedule: Q01DX005 (ip), vehicle: saline with Tween-80 93 % of control | dose: 240.0 mg/kg/injection, schedule: Q01DX005 (ip), vehicle: saline with Tween-80 95 % of control

CCCCCCCC(=O)[O][Hg][CH2]C1COC([CH2][Hg][O]C(=O)CCCCCCC)CO1 (stereo unspecified)
inactive: dose: 12.5 mg/kg/injection, schedule: Q04DX003 (ip), vehicle: saline with Tween-80 95 % of control | dose: 16.5 mg/kg/injection, schedule: Q01DX009 (ip), vehicle: saline sonified 120 % of control | dose: 16.5 mg/kg/injection, schedule: Q04DX003 (ip), vehicle: saline 90 % of control | dose: 25.0 mg/kg/injection, schedule: Q04DX003 (ip), vehicle: saline with Tween-80 109 % of control | dose: 25.0 mg/kg/injection, schedule: Q04DX003 (ip), vehicle: saline 90 % of control | dose: 37.5 mg/kg/injection, schedule: Q01DX009 (ip), vehicle: saline sonified 120 % of control | dose: 37.5 mg/kg/injection, schedule: Q04DX003 (ip), vehicle: saline 90 % of control | dose: 50.0 mg/kg/injection, schedule: Q04DX003 (ip), vehicle: saline with Tween-80 118 % of control

CC12CCC(S)CC1=CCC1C2CCC2(C)/C(=N/NC(N)=S)CCC12 (stereo unspecified)
inactive: dose: 25.0 mg/kg/injection, schedule: Q01DX009 (ip), vehicle: distilled water + Tween-80 105 % of control | dose: 50.0 mg/kg/injection, schedule: Q01DX009 (ip), vehicle: distilled water + Tween-80 100 % of control | dose: 100.0 mg/kg/injection, schedule: Q01DX009 (ip), vehicle: distilled water + Tween-80 105 % of control | dose: 200.0 mg/kg/injection, schedule: Q01DX009 (ip), vehicle: distilled water + Tween-80 98 % of control | dose: 400.0 mg/kg/injection, schedule: Q01DX009 (ip), vehicle: distilled water + Tween-80 107 % of control

CC(=O)c1c(O)cc2c(c1O)C1CC(C)(CCC1=C(C)C)O2 (stereo unspecified)
inactive: dose: 6.25 mg/kg/injection, schedule: Q01DX009 (ip), vehicle: saline 105 % of control | dose: 12.5 mg/kg/injection, schedule: Q01DX009 (ip), vehicle: saline 105 % of control | dose: 25.0 mg/kg/injection, schedule: Q01DX009 (ip), vehicle: saline 107 % of control | dose: 100.0 mg/kg/injection, schedule: Q01DX009 (ip), vehicle: saline 90 % of control | dose: 200.0 mg/kg/injection, schedule: Q01DX009 (ip), vehicle: saline 89 % of control

CC[CH2][Sn]([F])([F])[CH2]CC
inactive: dose: 0.78 mg/kg/injection, schedule: Q04DX003 (ip), vehicle: saline 105 % of control | dose: 1.56 mg/kg/injection, schedule: Q04DX003 (ip), vehicle: saline 100 % of control and 114 % of control | dose: 3.12 mg/kg/injection, schedule: Q04DX003 (ip), vehicle: saline 102 % of control | dose: 6.25 mg/kg/injection, schedule: Q04DX003 (ip), vehicle: saline 105 % of control | dose: 12.5 mg/kg/injection, schedule: Q04DX003 (ip), vehicle: saline 114 % of control
